Source: patent US9005937B2, “Dual cofactor specific ribitol dehydrogenase and use thereof” (Konkuk University Industrial Cooperation Corp., priority 2011, dated 2015)
Entries after “also recorded” stand apart in the source; their conditions may differ. Like-named read-outs stand apart in the source and are kept apart here.

Legend:
ribitol dehydrogenase = type: biochemical, Zymomonas mobilis
[1] = biological target: T1, Zymomonas mobilis ribitol dehydrogenase, wild-type, SEQ ID NO: 4 (Zymomonas mobilis, UniProt Q5NQS1); assay: Dynamical (kinetic) parameters of ribitol dehydrogenase to coenzyme NAD(H)/NADP(H), wild-type; type: biochemical; conditions: NADP 0.01 to 3 mM
T1 sequence (Q5NQS1 74-338): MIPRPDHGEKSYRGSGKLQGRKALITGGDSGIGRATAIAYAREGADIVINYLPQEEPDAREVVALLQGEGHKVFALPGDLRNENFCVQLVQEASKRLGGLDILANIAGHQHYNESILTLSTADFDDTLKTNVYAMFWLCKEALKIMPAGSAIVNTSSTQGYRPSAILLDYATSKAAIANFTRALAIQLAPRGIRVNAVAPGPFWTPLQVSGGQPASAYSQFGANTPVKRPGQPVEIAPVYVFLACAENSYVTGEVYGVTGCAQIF
Procedure: The optimum pH on dehydrogenation activity of the ribitol dehydrogenase was measured using 20 mM of Tris-HCl buffer. The enzyme activity was determined by monitoring the change per minute in absorbance at 340 nm while the sample was reacted in the presence of NAD(H) and ribitol.
Then, dynamical parameters were measured through a nonlinear regression analysis.

[2] = metal ion 10 mM, enzyme treated with 10 mM EDTA for 24 hours and dialyzed

| SMILES | Relative activity (%) 10 mM (ribitol dehydrogenase; [2]) | also measured |
| --- | --- | --- |
| [Cl-].[Cl-].[Zn+2] [ZnCl2] | 0.3% |  |
| O=S(=O)([O-])[O-].[Cu+2] [CuSO4] | 0.1% |  |
| [Cl][Fe]([Cl])[Cl] [FeCl3] | 0.2% |  |
| [Cl-].[Cl-].[Co+2] [CoCl2] |  | Relative activity (%) 10 mM (ribitol dehydrogenase): 62.5%; activity of enzyme in the presence of metal ion (in words) (ribitol dehydrogenase): maximum enzyme activity; also recorded: the activity of enzyme was observed |
| [Cl-].[Cl-].[Mg+2] [MgCl2] | 0.4% |  |
| [Ca+2].[Cl-].[Cl-] [CaCl2] | 1.1% |  |
| NC(=O)c1ccc[n+]([C@@H]2O[C@H](COP(=O)(O)OP(=O)(O)OC[C@H]3O[C@@H](n4cnc5c(N)ncnc54)[C@H](OP(=O)(O)O)[C@@H]3O)[C@@H](O)[C@H]2O)c1 [NADP^+] |  | kcat (NADP^+) [1]: 2.79 ± 0.15 s⁻¹ |
| [Cl][Mn][Cl] [MnCl2] | 100% | activity of enzyme in the presence of metal ion (in words) (ribitol dehydrogenase; metal ion 10 mM, listed as Mn^2+): maximum enzyme activity; also recorded: the activity of enzyme was observed |
